Where a name gives a salt, the structure may show the parent alone. Read-outs that look alike come from different tables or passages of the source.
Assays:
[1] = tested on: sound-induced tonic seizures in DBA/2 mice; assay: DBA2 test: prevention of audiogenic seizures in DBA/2 mice; format: in vivo; conditions: DBA/2 mouse
Procedure: A Model of Anticonvulsant Efficacy and Protocol for DBA2 Test: Prevention of Audiogenic Seizures in DBA/2 Mice
All procedures were carried out in compliance with the NI/H Guide for the Care and Use of Laboratory Animals under a protocol approved by the Parke-Davis Animal Use Committee. Male DBA/2 mice, 3 to 4 weeks old, were obtained from Jackson Laboratories, Bar Harbour, Me. Immediately before anticonvulsant testing, mice were placed upon a wire mesh, 4 inches square suspended from a steel rod. The square was slowly inverted through 180 degrees and mice observed for 30 seconds. Any mouse falling from the wire mesh was scored as ataxic.
Mice were placed into an enclosed acrylic plastic chamber (21 cm height, approximately 30 cm diameter) with a high-frequency speaker (4 cm diameter) in the center of the top lid. An audio signal generator (Protek model B-810) was used to produce a continuous sinusoidal tone that was swept linearly in frequency between 8 kHz and 16 kHz once each 10 msec. The average sound pressure level (SPL) during stimulation was approximately 100 dB at the floor of the chamber. Mice were placed within the chamber and allowed to acclimatize for 1 minute. DBA/2 mice in the vehicle-treated group responded to the sound stimulus (applied until tonic extension occurred, or for a maximum of 60 seconds) with a characteristic seizure sequence consisting of wild running followed by clonic seizures, and later by tonic extension, and finally by respiratory arrest and death in 80% or more of the mice. In vehicle-treated mice, the entire sequence of seizures to respiratory arrest lasts approximately 15 to 20 seconds.
The incidence of all the seizure phases in the drug-treated and vehicle-treated mice was recorded, and the occurrence of tonic seizures were used for calculating anticonvulsant ED50 values by probit analysis. Mice were used only once for testing at each dose point. […] All drugs in the present study were dissolved in distilled water and given by oral gavage in a volume of 10 mL/kg of body weight. compounds that are insoluble will be suspended in 1% carboxymethocellulose. Doses are expressed as weight of the active drug moiety.

[2] = tested on: Carrageenan Induced Thermal Hyperalgesia in the Rat; assay: Carrageenan-induced thermal hyperalgesia in the rat (plantar test, paw withdrawal latency); format: in vivo; conditions: MPE = maximum possible effect, baseline before carrageenan
Procedure: Male Sprague-Dawley rats (180-250 g) were obtained from Bantin and Kingman, (Hull, U.K.). Animals were housed in groups of 6 to 10 under a 12 hour light/dark cycle (lights on at 7 hours, 0 minutes) with food and water ad libitum.
Carrageenan-induced Thermal Hyperalgesia in the Rat
Thermal hyperalgesia was assessed using the rat plantar test (Ugo Basile, Italy) following a modified method of Hargreaves, et al., 1988. Rats were habituated to the apparatus which consisted of three individual perspex boxes on an elevated glass table. A mobile radiant heat source located under the table was focused onto the desired paw and paw withdrawal latencies (PWL) recorded. PWL were taken 3 times for both hind paws of each animal, the mean of which represented baselines for right and left hind paws. At least 5 minutes were allowed between each PWL for an animal. The apparatus was calibrated to give a PWL of approximately 10 s. There was an automatic cutoff point of 20 s to prevent tissue damage. After baseline PWLs were determined, animals received an intraplantar injection of carrageenan (100 μL of 20 mg/mL) into the right hind paw. PWLs were reassessed following the same protocol as above 2-hour post-carrageenan (this time point represented the start of peak hyperalgesia) to ascertain that hyperalgesia had developed. Test compounds were administered orally (in a volume of 1 mL/kg) at 2.5 hours after carrageenan. PWLs were reassessed at various times after drug administration.

α2δ subunit = molecular target: T1, α2δ subunit (Sus scrofa, UniProt A0A287BIN3); assay: radioligand binding assay using [3H]gabapentin and the α2δ subunit; parameters: species or system porcine
T1 construct: the α2δ subunit derived from porcine brain tissue was used; from tissue; host or cells: porcine brain tissue
T1 sequence (A0A287BIN3 25-1109): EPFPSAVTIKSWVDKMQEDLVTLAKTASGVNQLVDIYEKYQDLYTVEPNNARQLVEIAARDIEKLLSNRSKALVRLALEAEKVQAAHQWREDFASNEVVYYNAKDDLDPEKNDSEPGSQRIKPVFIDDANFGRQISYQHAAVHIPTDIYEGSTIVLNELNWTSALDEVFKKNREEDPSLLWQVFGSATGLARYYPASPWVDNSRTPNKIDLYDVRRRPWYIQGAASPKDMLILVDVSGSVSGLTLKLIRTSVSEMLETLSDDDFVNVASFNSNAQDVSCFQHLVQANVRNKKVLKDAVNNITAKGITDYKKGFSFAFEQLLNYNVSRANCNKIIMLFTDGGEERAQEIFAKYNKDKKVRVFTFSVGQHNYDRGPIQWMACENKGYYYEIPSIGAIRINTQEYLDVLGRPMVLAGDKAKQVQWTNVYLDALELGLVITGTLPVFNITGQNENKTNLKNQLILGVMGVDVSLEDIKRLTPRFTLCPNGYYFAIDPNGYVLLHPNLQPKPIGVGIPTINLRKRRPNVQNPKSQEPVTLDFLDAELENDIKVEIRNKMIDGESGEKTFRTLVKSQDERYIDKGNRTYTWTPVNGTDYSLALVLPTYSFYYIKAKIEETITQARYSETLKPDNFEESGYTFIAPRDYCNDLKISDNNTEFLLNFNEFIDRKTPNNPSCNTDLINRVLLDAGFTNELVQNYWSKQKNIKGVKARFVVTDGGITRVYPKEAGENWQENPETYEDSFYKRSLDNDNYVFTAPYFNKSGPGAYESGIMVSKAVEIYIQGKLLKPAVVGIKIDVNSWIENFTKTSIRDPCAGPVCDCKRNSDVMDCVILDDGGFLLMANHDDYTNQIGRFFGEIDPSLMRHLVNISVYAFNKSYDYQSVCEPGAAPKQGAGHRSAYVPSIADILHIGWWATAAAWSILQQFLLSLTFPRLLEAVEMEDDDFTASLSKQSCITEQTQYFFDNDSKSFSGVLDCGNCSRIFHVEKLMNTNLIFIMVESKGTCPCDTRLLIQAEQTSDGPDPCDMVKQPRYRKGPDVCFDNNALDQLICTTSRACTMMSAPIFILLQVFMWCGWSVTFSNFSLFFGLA

| Structure (SMILES) | % Protected 1 hr postdose 30 mg/kg PO [1] [%] | % MPE 1 hr postdose @ 30 mg/kg PO [2] [% MPE] | % MPE 2 hr postdose @ 30 mg/kg PO [2] [% MPE] | IC50 (α2δ subunit) [µM] | % Protected (2 hour postdose) 30 mg/kg PO ([1]; 2 hour postdose) | IC50 (α2δ subunit; read-out: IC50 (μM) at α2δ binding site) [µM] |
| --- | --- | --- | --- | --- | --- | --- |
| C[C@@H]1CC(CN)(CC(=O)O)C[C@H]1C.Cl (racemic) [(±)-(trans)-(1-Aminomethyl-3,4-dimethyl-cyclopentyl)-acetic acid hydrochloride] | 100 | 23 | 72 | 0.034 |  |  |
| NCC1(CC(=O)O)CC(Cc2ccccc2)C1 (mixture of isomers) [(cis/trans)-(1-Aminomethyl-3-benzyl-cyclobutyl)-acetic acid hydrochloride] |  | 0 | 0 | > 10 |  |  |
| C[C@@H]1CC(CN)(CC(=O)O)C[C@H]1C [(3R,4R)-(1-Aminomethyl-3,4-dimethyl-cyclopentyl)-acetic acid hydrochloride] |  |  |  | 1 |  |  |
| Cl.NCC1(CC(=O)O)CCC1 [(1-Aminomethyl-cyclobutyl)-acetic acid hydrochloride] |  | 4 | 4 | 0.598 | 20 (2 hour postdose) % |  |
| C[C@@H]1C[C@](CN)(CC(=O)O)C[C@@H]1C [(1α,3β,4β)-(1-Aminomethyl-3,4-dimethyl-cyclopentyl)-acetic acid hydrochloride] | 100 | −7 | −2 |  |  | 0.154 |
| C[C@@H]1CCC(CN)(CC(=O)O)C1 (mixture of isomers) [(cis/trans)-(3R)-(1-Aminomethyl-3-methyl-cyclopentyl)-acetic acid hydrochloride] | 100 | 67 | 53 | 0.088 |  |  |
| C[C@H]1CC(CN)(CC(=O)O)C[C@@H]1C.Cl [(3S,4S)-(1-Aminomethyl-3,4-dimethyl-cyclopentyl)-acetic acid hydrochloride] | 100 | 109 | 118 | 0.022 |  |  |

Reference: patent US6921835B2, “Cyclic amino acids and derivatives thereof useful as pharmaceutical agents” (Warner Lambert Company, priority 1997, dated 2005)
